Results on ten molecules are retold here after PubChem BioAssay (NCI).

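Five compound concentrations were applied to cells in 96-well plates for 48 hours; endpoints were derived by simple linear interpolation of the resulting dose-response curve. GI50: concentration for 50% inhibition of growth. Definition used: TGI = concentration required for complete inhibition of growth.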

Holding throughout (experiment): NCI-60 cell line screen, 48 h
The subject of experiment [1] is CCRF-CEM leukemia.
Experiment [2] has as its system HOP-62 NSCLC.
The test system of experiment [3] is SK-MEL-2 melanoma.
Experiment [4] deals with SNB-19 CNS.
In experiment [5] the test system is SN12C renal.
The subject of experiment [6] is LOX IMVI melanoma.
Experiment [7] relates to SK-OV-3 ovarian.
In experiment [8] the test system is SR leukemia.
The subject of experiment [9] is UACC-62 melanoma.
The subject of experiment [10] is DLD-1 colon.
Experiment [11] has as its system MCF7 breast.

On to `O=[N+]([O-])c1ccc(C2=Nc3ccccc3SC(c3ccccc3)C2)cc1` (stereo not drawn), for which the TGI in experiment [1] is 37.2 µM; in [2], 58.5 µM; in experiment [3], 33.2 µM; in [4] it was 32.3 µM; in [5], 32.2 µM; in experiment [6] it was 29.3 µM. Also, the TGI in experiment [7] amounted to 46 µM; in experiment [8] it was 45.2 µM; in [9] it was 27.3 µM; in experiment [10] it was 48.3 µM.

Consider `O=C([CH-]C(=O)c1ccccc1)c1ccccc1.O=C([CH-]C(=O)c1ccccc1)c1ccccc1.[O]=[U+2]=[O]`, for which the GI50 in [4] was 3.36 µM; in experiment [5] it was 3.33 µM; in experiment [6], 2.7 µM; in experiment [7] it was 4.01 µM; in [9], 2.43 µM. Moreover, the TGI in experiment [4] is 18.9 µM; in [5], 18.7 µM; in experiment [6], above 100 µM; in experiment [7], 12.3 µM; in experiment [9] it was 6.91 µM.

In the case of `O=C(c1ccco1)C1CC(c2c(O)ccc3ccccc23)=NN1` (stereo not drawn), the TGI came to 93 µM in [1]; 27.3 µM in [2]; 39.2 µM in experiment [3]; 47.8 µM in [4]; 46 µM in [5]; 56.6 µM in [7]. In addition, the TGI turned out to be 42.8 µM in experiment [8], 26 µM in experiment [9] and 22 µM in experiment [11].

As to `NC(=O)c1ncn2c1NC(=O)CC2`, the TGI in experiment [1], in experiment [2], in [3], in experiment [4], in [5] and in experiment [6] was above 100 µM throughout. Also, the TGI in [7], in experiment [9], in experiment [11] and in experiment [10] was above 100 µM throughout.

Regarding `COC(=O)C1=C(O)C(C(=O)OC)[C@@]2(O)[C@@H](C(=O)OC)[C@H](C)[C@@H](C)[C@@H]1[C@@H]2C(=O)OC` (stereo partly drawn), the TGI in experiment [1], in [2], in [3], in experiment [4], in experiment [5] and in experiment [6] was above 100 µM each time. Moreover, the TGI in experiment [7], in [8], in experiment [9] and in experiment [11] was above 100 µM each time.

As to `CC1(C)OC2CC(=O)OCC23C1CC(=O)C1(C)C3CCC2(C)C(c3ccoc3)OC(=O)C3OC321` (stereo not drawn), the TGI is above 125 µM in experiment [1]; above 125 µM in experiment [2]; above 125 µM in experiment [3]; above 125 µM in experiment [4]; above 39.5 µM in experiment [5]; above 125 µM in experiment [6]. Besides, the TGI in experiment [7] is above 125 µM; in experiment [9], above 125 µM; in experiment [11], above 70.3 µM; in experiment [10] it was above 125 µM.

In the case of `CCN1C(=O)N(CC)C2Nn3c(s/c(=C4\C(=O)N(C)c5ccccc54)c3=O)=NC21` (stereo not drawn), the GI50 in experiment [1] was 3.3 µM; in [6], 4.82 µM; in experiment [8] it was 0.978 µM; in experiment [11], 1.03 µM. In addition, the TGI in experiment [1], in experiment [6], in [8] and in experiment [11] was above 100 µM each time.

In the case of `CCCCC#CS(=O)(=O)C(F)(F)F`, the TGI in experiment [1], in experiment [2], in experiment [3], in [4], in [5] and in [6] was above 100 µM each time. Also, the TGI in experiment [7] is above 100 µM; in experiment [9], 99.6 µM; in experiment [11], above 100 µM; in experiment [10], above 100 µM.

With `Cc1c2ccncc2c(C)c2c1[nH]c1ccccc12`, the TGI stood at 4.44 µM in [1]; 3.13 µM in experiment [2]; 6.79 µM in [3]; 2.09 µM in [4]; 4.63 µM in experiment [5]; 4.2 µM in experiment [6]. Further, the TGI is 4.44 µM in experiment [7]; above 100 µM in experiment [8]; 6.02 µM in experiment [9]; 2.54 µM in [11]; 2.33 µM in experiment [10]. Also, the GI50 in experiment [8] was 0.819 µM.

As to `O=C(OCc1ccccc1)C(Cc1ccccc1)N(Cc1ccccc1)Cc1ccccc1` (stereo not drawn), the TGI in experiment [1], in experiment [2], in experiment [3], in experiment [4], in experiment [5] and in experiment [7] was above 100 µM each time. In addition, the TGI in experiment [8], in [9] and in experiment [10] was above 100 µM each time.
